Assay results published in PMC12649408 (Antibiotics, 2025).
Like-named read-outs stand apart in the source and are kept apart here. Bridge positions count the residues as written; N and C are the ends. Ends that are not written are not given here.

Tests used:
[1] = not given; remark: listed apart in the source
[2] = not given; remark: listed apart in the source
[3] = not given; remark: listed apart in the source
α-chymotrypsin = conditions: 24 h, 37 °C, 50 mM ammonium bicarbonate buffer pH 8.0, 10 ng α-chymotrypsin per 1 μg peptide, SDS-PAGE
Method: (§5) For that purpose, peptides were incubated for 24 h at 50 mM ammonium bicarbonate buffer, pH 8.0, with or without protease.
(§6) The results of proteolysis were monitored by SDS-PAGE (17% T, 3%C). α-Casein, known for its susceptibility to proteolytic digestion, was used in these experiments for comparison.

[4] = not given; remark: listed apart in the source
Caco-2 cell monolayer = assay: Cytotoxicity assay, resazurin method; type: cell-based, human
Method: (§1) Cytotoxic activity of the peptides was investigated against human peripheral blood mononuclear cells (PBMCs) and the Caco-2 epithelial monolayer as an in vitro model of the intestinal barrier using a RPMI-1640 medium and resazurin-test.
(§2) In brief, Caco-2 cells in a monolayer or 2 × 10^6 PBMCs per well were incubated with serial dilutions of the peptides for 24 h in RPMI-1640. Resazurin (Sigma, St. Louis, MO, USA) was then added at a final concentration of 70 µM and the plates were incubated for 20 h. Untreated cells (F0) and cells treated by 0.1% Triton X-100 (Sigma-Aldrich) (Fcontrol) were used as negative and positive controls, respectively. Cell viability was assessed by resorufin fluorescence using a 535/595 nm filter and a PlateReader AF2200 as ((Fsample − F0)/(Fcontrol − F0)) × 100%. […] The experiment was carried out twice in duplicate.

PBMCs = assay: Cytotoxicity assay, resazurin method; type: cell-based, human
Method: as §1, §2

[5] = not given; remark: listed apart in the source
[6] = not given; remark: listed apart in the source
[7] = system: human red blood cells (hRBCs); conditions: 100 µM
Method: All procedures were approved by the Ethics Committee of the Institute of Experimental Medicine (protocol 1/20 of 2/27/2020) and comply with the ethical principles of the Declaration of Helsinki. […] Samples were centrifuged to sediment intact red blood cells. Supernatants containing released hemoglobin were transferred to 96-well microplates, and absorbance was measured at 405 nm. Untreated hRBCs in PBS (A0) and hRBC treated with 0.1% Triton X-100 (Sigma-Aldrich) (Acontrol) were used as negative and positive controls, respectively. The percentage of hemolysis was calculated as [(Asample − A0)/(Acontrol − A0)] × 100%. The experiment was carried out twice in duplicate.

C. albicans ATCC 18804 [8] = assay: Checkerboard antifungal assay; type: cell-based; conditions: Sabouraud broth, 24 h, 30 °C, synergism at FICI ≤ 0.5, additive action at 0.5 < FIC ≤ 1
Method: All three selected analogues acted synergistically with caspofungin, and the FICI value for NaD1-2 was lower than that of the tobacco defensin.
Two-fold serial dilutions of each test agent were prepared in 96-well microplates in water or 1% DMSO in the case of caspofungin and mixed with equal volumes of suspensions of C. albicans cells (4 × 10^4 cells/mL) in Sabouraud broth, followed by 24 h incubation at 30 °C. Controls containing DMSO at a final concentration of 0.5% (cells only and single agent dilutions) were included in all caspofungin combination assays. […] To assess the combined effect of antifungal substances, the fractional inhibitory concentration index (FICI) was calculated as FICI = ([A])/([MICA]) + ([B])/([MICB]), where [MICA] and [MICB] are the MICs of the substances A and B, respectively, and [A] and [B] are the concentrations of the substances A and B in iso-effective combinations, respectively.

[9] = not given; remark: listed apart in the source
[10] = not given; remark: listed apart in the source
[11] = not given; remark: listed apart in the source
[12] = not given; remark: listed apart in the source
[13] = not given; remark: listed apart in the source
C. albicans ATCC 10231 = conditions: Table 2; strain resistant to azoles and anidulafungin; Sabouraud broth, 30 °C, 24 h, 100% inhibition
Method: (§3) Using the two-fold serial dilution method, antifungal activities of the obtained analogues were tested against different C. albicans strains: susceptible collection strain ATCC 18804; resistant to azoles and anidulafungin collection strain ATCC 10231 and clinical isolates 9.1 and 8.2 [7].
(§4) The antifungal assay was performed by the microdilution method using 96-well microplates and Sabouraud broth as described earlier. […] After that, the plates were incubated at 30 °C for 24 h. A control without antifungals was also tested. Fungal growth was evaluated by measuring absorbance at 630 nm. […] All the experiments were performed twice in triplicate. Microscopic analysis of fungal growth was performed using inverted microscopy (Olympus, Tokyo, Japan). A 0.1% BSA solution was used for the blocking of each microplates well to prevent the adsorption of antifungal agents.

[14] = system: C. albicans clinical isolate 9.1; conditions: Table 2; resistant clinical isolate 9.1; Sabouraud broth, 30 °C, 24 h, 100% inhibition
Method: as §3, §4

[15] = system: C. albicans clinical isolate 8.2; conditions: Table 2; resistant clinical isolate 8.2; Sabouraud broth, 30 °C, 24 h, 100% inhibition
Method: as §3, §4

C. albicans ATCC 18804 [16] = conditions: Sabouraud broth
Method: as §3, §4

trypsin = biological target: T1, trypsin (Bos taurus, UniProt P00760); conditions: 24 h, 37 °C, 50 mM ammonium bicarbonate buffer pH 8.0, 2.5 ng trypsin per 1 μg peptide, SDS-PAGE
T1 construct: gene PRSS1
T1 sequence (P00760 24-246): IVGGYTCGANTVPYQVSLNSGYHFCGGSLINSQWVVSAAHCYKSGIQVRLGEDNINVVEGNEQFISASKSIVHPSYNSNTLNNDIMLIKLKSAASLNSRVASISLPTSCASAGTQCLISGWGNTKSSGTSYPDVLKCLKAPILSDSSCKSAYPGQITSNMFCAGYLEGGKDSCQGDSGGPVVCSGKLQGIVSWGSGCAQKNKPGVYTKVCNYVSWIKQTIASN
Method: as §5, §6

[17] = Caco-2 monolayer, RPMI-1640, resazurin-test

## RECKTESNTFPGICITKPPCRKACISEKFTDGHCSKILRRCLCTKPC (disulfide 3-47, 14-34, 20-41, 24-43) [NaD1]
other
  β-Turn, aqueous solution: 21.3%
[1]
  β-Sheet, SDS micelles: 31%
[2]
  α-Helix, SDS micelles: 15.8%
[3]
  Random, DPC micelles: 34.2%
α-chymotrypsin
  stability to chymotrypsin digestion: high stability
[4]
  β-Sheet, DPC micelles: 35.4%
Caco-2 cell monolayer; [17]
  concentration at which cell viability was 0% (100% cell death): 37.5 µM
  concentration at which cell viability was 50%: 10.5 µM
Caco-2 cell monolayer; Table S2, monolayer, 24 h in RPMI-1640, resazurin, twice in duplicate
  СС50 Caco-2: 10.5 µM
PBMCs; PBMCs, peptide 100 μM, RPMI-1640, resazurin-test
  cell viability: approximately 72%
PBMCs; Table S2, 24 h in RPMI-1640, resazurin, twice in duplicate
  СС50 PBMCs: > 100 µM
[5]
  β-Turn, SDS micelles: 22.2%
[6]
  Random, aqueous solution: 35.8%
[7]
  Hemolysis at 100 µM: 14%
C. albicans ATCC 18804 [8]; combination of the peptide with LL-37
  FICI LL-37: 0.38
C. albicans ATCC 18804 [8]; combination of the peptide with caspofungin
  FICI Casp: 0.31
[9]
  Random, SDS micelles: 31%
[10]
  β-Sheet, aqueous solution: 35.4%
[11]
  α-Helix, DPC micelles: 9.3%
[12]
  α-Helix, aqueous solution: 7.5%
[13]
  β-Turn, DPC micelles: 21.1%
C. albicans ATCC 10231
  MIC: 6.25 µM
[14]
  MIC: 6.25 µM
[15]
  MIC: 6.25 µM
C. albicans ATCC 18804 [16]; 50 mM NaCl, 50% inhibition
  IC50: 12.5 to 25 µM
C. albicans ATCC 18804 [16]; 50 mM NaCl, 100% inhibition
  MIC: 50 µM
C. albicans ATCC 18804 [16]; 150 mM NaCl, 50% inhibition
  IC50: > 50 µM
C. albicans ATCC 18804 [16]; Table 2, 30 °C, 24 h, 100% inhibition of fungal growth, absorbance 630 nm, two-fold dilutions, twice in triplicate
  MIC: 6.25 µM
C. albicans ATCC 18804 [16]; Table 3, No Salts, 50% inhibition of fungal growth
  IC50: 1.56 to 3.13 µM
C. albicans ATCC 18804 [16]; Table 3, No Salts, 100% inhibition of fungal growth
  MIC: 6.25 µM
C. albicans ATCC 18804 [16]; […] CaCl2, 50% inhibition
  IC50: > 50 µM
C. albicans ATCC 18804 [16]; […] CaCl2, 100% inhibition
  MIC: >50 µM
C. albicans ATCC 18804 [16]; […] MgCl2, 50% inhibition
  IC50: 3.13 to 6.25 µM
C. albicans ATCC 18804 [16]; […] MgCl2, 100% inhibition
  MIC: 12.5 µM
trypsin
  stability to trypsin digestion: high stability
